Where two headings read alike, the source gives them in different places.
Key:
[1] = tested on: patients with acute ischemic stroke treated with intravenous thrombolysis; assay: Hemorrhagic transformations and parenchymatous hemorrhages on post-treatment CT or MR; type: in vivo, human
Method: (§1) Occurrence and severity of hemorrhagic transformation, intracerebral hemorrhage and cerebral edema on post-treatment computer tomography (CT) or magnetic resonance imaging (MR) were among secondary outcomes. Others were neurological outcome at 2 hours, 24 hours and 7 days after initiation of intravenous thrombolysis, functional outcome at 3 months and infarct volume at 7 days. Infarct volume evaluation will be addressed in a following publication.

[2] = oral
[3] = tested on: patients with acute ischemic stroke treated with intravenous thrombolysis; assay: Cerebral edema on post-treatment CT or MR; type: in vivo, human
Method: as §1

[4] = tested on: patients with acute ischemic stroke treated with intravenous thrombolysis; details: Imatinib treated patients
Method: as §1
Clinical assessments, including determination of the NIHSS score were performed before intravenous thrombolysis and start of study treatment (baseline), 2 hours (day 0), day 1 and then daily until day 7. A final NIHSS score was included in the 3 months follow up examination. Assessment of any adverse event was done daily from day 0 to day 7, and finally at 3 months. CT scan was performed at baseline, 24 hours (accepted interval 22-36 hours) and, optionally, at 7 days, MRI at 24 h (accepted interval as for CT) and at 7 days. […] At three months functional status was evaluated using the modified Rankin Scale (mRS) score. […]
When looking at separate time points, linear regression with robust standard errors was used, while adjusting for thrombectomy. […] The association between treatment groups and functional independence was analyzed using odds ratios. […]

clinical = details: human, plasma, po
[5] = tested on: patients with acute ischemic stroke treated with intravenous thrombolysis; assay: Neurological outcome (NIHSS score); type: in vivo, human; details: for mean lowering of the NIHSS score, estimate in brackets / mean lowering (improvement) of the NIHSS score: after adjustment for thrombectomy
Method: as §1
Clinical assessments, including determination of the NIHSS score were performed before intravenous thrombolysis and start of study treatment (baseline), 2 hours (day 0), day 1 and then daily until day 7. A final NIHSS score was included in the 3 months follow up examination. Assessment of any adverse event was done daily from day 0 to day 7, and finally at 3 months. CT scan was performed at baseline, 24 hours (accepted interval 22-36 hours) and, optionally, at 7 days, MRI at 24 h (accepted interval as for CT) and at 7 days. Definitions of hemorrhagic transformations, parenchymatous hemorrhages and edema are described in an earlier publication R1 and also listed in Table 1. At three months functional status was evaluated using the modified Rankin Scale (mRS) score. The three months follow up examinations were performed blindly at a different hospital than the one responsible for the acute treatment.
When looking at separate time points, linear regression with robust standard errors was used, while adjusting for thrombectomy. […] The choice of using AR1 correlation was made by comparing the Akaike Information Criterion to a model without AR1 correlation. […] The association between treatment groups and functional independence was analyzed using odds ratios. The statistical software Stata v.13 was used.

Bcr-Abl tyrosine kinase = details: more potent than Imatinib; cited from earlier work

## Cc1ccc(NC(=O)c2ccc(CN3CCN(C)CC3)cc2)cc1Nc1nccc(-c2cccnc2)n1 [Imatinib]
[1]; high dose
  number of hemorrhagic transformations: 3
  parenchymatous hemorrhages, PH1 type: one
[1]; high dose group
  remote parenchymatous hemorrhages of the milder grade (PHr1): 3
[1]; initiation of Imatinib within 5 hours after stroke onset, high dose group, of 5 treated
  hemorrhages reported: no hemorrhages
[1]; initiation of Imatinib within 5 hours after stroke onset, low dose group, of 8 treated
  hemorrhages reported: 4
[1]; initiation of Imatinib within 5 hours after stroke onset, medium dose, of to treated
  hemorrhages reported: 5
[1]; low dose group
  number of hemorrhagic transformations: 6
  remote parenchymatous hemorrhages of the milder grade (PHr1): one
[1]; medium dose
  number of hemorrhagic transformations: 7
  parenchymatous hemorrhages, PH2: one
[1]; medium dose group
  remote parenchymatous hemorrhages of the milder grade (PHr1): one
[1]; reperfusion treatment completed within 4.5 hours, high dose group, of 7 treated
  hemorrhages reported: no hemorrhages
[1]; reperfusion treatment completed within 4.5 hours, low dose, of 9
  hemorrhages reported: 5
[1]; reperfusion treatment completed within 4.5 hours, medium dose, of 11 treated
  hemorrhages reported: 6
[2]; 400 mg daily
  mean plasma concentration of Imatinib, Day 0-Day 6: 530 ng/mL
[2]; 600 mg daily
  mean plasma concentration of Imatinib, Day 0-Day 6: 1094 ng/mL
[2]; 800 mg daily
  mean plasma concentration of Imatinib, Day 0-Day 6: 2054 ng/mL
[3]; high dose
  number of cerebral edema (CED 1-3): to
  patients with the mildest form of edema, CED 1: to
[3]; initiation of Imatinib within 5 hours after stroke onset, high dose group, of 5 patients
  patients with CED 1 at follow up: 2
[3]; initiation of Imatinib within 5 hours after stroke onset, low dose, of 8 patients
  patients with CED 1 or 2: 4
[3]; initiation of Imatinib within 5 hours after stroke onset, medium dose, of to patients
  patients with CED 1 or 2: 5
[3]; low dose
  number of cerebral edema (CED 1-3): 6
  patients with the mildest form of edema, CED 1: 4
[3]; low dose group
  moderately severe edema (CED-2): Two
[3]; medium dose
  moderately severe edema (CED-2): 1
  number of cerebral edema (CED 1-3): 8
  patients with the mildest form of edema, CED 1: 7
[3]; reperfusion treatment completed within 4.5 hours, high dose group, of 7 patients
  patients with CED 1: 4
[3]; reperfusion treatment completed within 4.5 hours, low dose, of nine
  patients with CED 1 or 2: 4
[3]; reperfusion treatment completed within 4.5 hours, medium dose, of 11
  patients with CED 1 or 2: 6
[4]
  severe disability (5 points on mRS) or death (6 points): did not occur
clinical; 400 mg
  concentration at 3 h: 996 ng/mL
clinical; 600 mg
  concentration at 3 h: 1570 ng/mL
clinical; 800 mg
  concentration at 3 h: 1730 ng/mL
[5]; after adjustment for the effect of thrombectomy
  improvement on the NIHSS per 100 mg Imatinib: 0.6 points
[5]; high dose, 3 months
  lowering of the adjusted mean NIHSS score compared to control, estimate in brackets: −4.81
[5]; high dose, 3 months, p<0.019
  lowering of the adjusted mean NIHSS score compared to control: 5 points
[5]; high dose, 7 days
  lowering of the adjusted mean NIHSS score compared to control, estimate in brackets: −5.68
[5]; high dose, 7 days, p<0.019
  lowering of the adjusted mean NIHSS score compared to control: 6 points
[5]; high dose
  mean lowering of the NIHSS score, estimate in brackets: −4.94
[5]; high dose, p<0.012
  mean lowering (improvement) of the NIHSS score: 5 points
[5]; high dose, day 1, p<0.018
  lowering of the adjusted mean NIHSS score compared to control: 5 points
[5]; low dose
  mean lowering of the NIHSS score, estimate in brackets: −2.30
[5]; low dose, p<0.259
  mean lowering (improvement) of the NIHSS score: 2 points
[5]; medium dose
  mean lowering of the NIHSS score, estimate in brackets: −3.05
[5]; medium dose, p<0.106
  mean lowering (improvement) of the NIHSS score: 3 points
[5]; treatment with Imatinib vs control
  neurological outcome: significantly improved neurological outcome

## Cc1cn(-c2cc(NC(=O)c3ccc(C)c(Nc4nccc(-c5cccnc5)n4)c3)cc(C(F)(F)F)c2)cn1 [Nilotinib]
Bcr-Abl tyrosine kinase
  potency relative to Imatinib in inhibiting Bcr-Abl tyrosine kinase activity: 10-30 fold
